From US20120132204A1, “UNIT DOSE DRY POWDER INHALER” (priority 2005, published 2012)

Columns and labels:
[1] = Particle size of spray-dried powder (Predictive Example); type: physicochemical; conditions: spray dried from 10% w/v feedstock
Method: A feedstock comprising 10% w/v frovatriptan succinate was fed to an in-house spray-dryer and was spray dried at the following settings: feed rate=2.1 g/min, inlet temp=130° C., outlet temp=66° C., atomisation=2-fluid nozzle, atomisation pressure=2 barg, atomisation air flow rate=21 l/min, drying air pressure=1 barg, drying air flow rate=5 l/sec. A respirable powder of less than 10 microns was produced which could then be administered to a patient in need of rapid relief from a migraine using the unit-dose dry powder inhaler of the invention.

migraine = conditions: cited from earlier work
plasma proteins = conditions: cited from earlier work
[2] = preclinical pharmacology studies; cited from earlier work
[3] = broad dose range of 1 to 100 mg; cited from earlier work
5-HT receptor = conditions: compared within the triptan class; cited from earlier work
[4] = tested on: cytochrome P450 isoenzymes; conditions: cited from earlier work

SMILES	particle size of respirable powder [1]	response rates (migraine; compared with placebo)	headache recurrence rates (migraine; compared within the triptan class)	binding to plasma proteins (plasma proteins)	cerebro-selectivity [2]	tolerability [3]	5-HT potency (5-HT receptor)	inhibiting or inducing effects on cytochrome P450 isoenzymes [4]
CN[C@@H]1CCc2[nH]c3ccc(C(N)=O)cc3c2C1 [frovatriptan succinate]	less than 10 microns	–	–	–	–	–	–	–
CN[C@@H]1CCc2[nH]c3ccc(C(N)=O)cc3c2C1 [Frovatriptan]	–	significantly higher response rates compared with placebo	lowest reported range of headache recurrence rates in the triptan class	only slightly bound	apparently cerebro-selective	well-tolerated	highest 5-HT potency in the triptan class	no inhibiting or inducing effects
